Two compounds from ChEMBL document CHEMBL3407399, “BPIC: A novel anti-tumor lead capable of inhibiting inflammation and scavenging free radicals” (Bioorg Med Chem Lett, 2015) can be followed below.

In data set [1] the test system is CCRF S-180. In words: Antiproliferative activity against mouse S180 cells assessed as cell viability after 48 hrs by MTT assay. The class given is functional, cell-based. Particulars: CCRF S-180, 48 h. Background: Tetrazolium assays rely on reduction of a dye to a coloured formazan, in cell work by metabolically active cells.
Data set [2] concerns Calf thymus DNA. Put plainly: Binding affinity to calf thymus DNA at 40 uM by UV-spectrophotometric analysis. Particulars: Bos taurus. Format: nucleic-acid assay.
For data set [3], the system named is Calf thymus DNA. Put plainly: Binding affinity to calf thymus DNA at 40 uM by fluoresce spectrum analysis. The class given is nucleic-acid assay. Particulars: Bos taurus.
The next data set has as its system HT-29. In words: Antiproliferative activity against human HT-29 cells assessed as cell viability after 48 hrs by MTT assay. The class given is functional, cell-based. Particulars: HT-29, 48 h.
The nature of data set [4]: Antiproliferative activity against human HL60 cells assessed as cell viability after 48 hrs by MTT assay. As to conditions: HL-60, 48 h. Format: functional, cell-based.
The next data set deals with K562. In words: Antiproliferative activity against human K562 cells assessed as cell viability after 48 hrs by MTT assay. The class given is functional, cell-based. Particulars: K562, 48 h.
In another data set the test system is HepG2. In words: Antiproliferative activity against human HepG2 cells assessed as cell viability after 48 hrs by MTT assay. Format: functional, cell-based. As to conditions: HepG2, 48 h.
Another data set has as its system HeLa. In words: Antiproliferative activity against human HeLa cells assessed as cell viability after 48 hrs by MTT assay. The class given is functional, cell-based.
The next data set deals with A549. Put plainly: Antiproliferative activity against human A549 cells assessed as cell viability after 48 hrs by MTT assay. Format: functional, cell-based. Particulars: A549, 48 h.
Data set [5] can be described thus: Antiproliferative activity against human SH-SY5Y cells assessed as cell viability after 48 hrs by MTT assay. Format: functional, cell-based.
Data set [6] has as its system CCRF S-180. Put plainly: Antitumor activity against mouse S180 cells allografted in male ICR mouse assessed as tumor growth inhibition treated orally ervery day for 7 days. The class given is functional.
In data set [7] the test system is CCRF S-180. Put plainly: Antitumor activity against mouse S180 cells allografted in male ICR mouse assessed as tumor growth inhibition at 0.1 umol/kg, po treated ervery day for 7 days relative to NS control. The class given is functional, organism-based.
Data set [8] deals with Mus musculus. Put plainly: Antiinflammatory activity in male ICR mouse assessed as xylene-induced ear edema at 1 umol/kg, ip relative to NS. Format: functional, organism-based.
Data set [9] deals with Mus musculus. In words: Antiinflammatory activity against xylene-induced male ICR mouse ear edema model assessed as plasma TNFalpha at 1 umol/kg, ip relative to NS. Format: functional, organism-based.
For data set [10], the system named is Mus musculus. Put plainly: Antiinflammatory activity against xylene-induced male ICR mouse ear edema model assessed as plasma IL-8 at 1 umol/kg, ip relative to NS. The class given is functional, organism-based.
Data set [11] in a line: Antioxidant activity assessed as NO free radical scavenging activity produced from N-methyl-D-glucamine dithiocarbamate by ESR assay. The class given is physicochemical.
A short description of data set [12]: Antioxidant activity assessed as O2 free radical scavenging activity produced from dimethylpyridine-N-oxide by ESR assay. Format: physicochemical.
Data set [13] in a line: Antioxidant activity assessed as OH free radical scavenging activity produced from dimethylpyridine-N-oxide by ESR assay. Format: physicochemical.

For orientation: IC50 means the concentration that inhibits the measured activity by half. The EC50 is the concentration that produces a half-maximal response.

Molecules are shown by their SMILES. Active and inactive are the calls of the source. The rule behind the calls is not given here.

In the case of `COc1cccc2c1C(=O)c1c(O)c3c(c(O)c1C2=O)C[C@@](O)(C(=O)CO)C[C@@H]3O[C@H]1C[C@H](N)[C@H](O)[C@H](C)O1` [DOXORUBICIN], the IC50 in the data set on CCRF S-180 [1] was determined as 9250 nM.

In the case of `COC(=O)c1cc(-c2nc(C(=O)OCc3ccccc3)cc3c2[nH]c2ccccc23)ccc1O`, the result in the data set with Calf thymus DNA [2] and in the data set with Calf thymus DNA [3] was Active. For the same compound, the IC50 (in the data set with HT-29; in data set [4]; in the data set with K562; in the data set on HepG2; in the data set on HeLa; with CCRF S-180 [1]) was 960 nM in each case. In addition, the IC50 (in the data set on A549; in data set [5]) was 960 nM throughout. In addition, the inhibition result in the data set on CCRF S-180 [6] and with CCRF S-180 [7] was “Dose-dependent effect” throughout. The inhibition entry in the data set on Mus musculus [8], in the data set on Mus musculus [9] and in the data set with Mus musculus [10] was “Active” in each case. Also, the EC50 in [11] was determined as 73000 nM; in data set [12] it was 285000 nM; in data set [13] it was 170 nM.
